The values below come from a melting point compilation (Tetko et al.; mined from patent text by program, amines drawn as free bases though some values may be those of a salt).

A value given as a limit tells only on which side of the number the result lay.

In general, melting point refers to the temperature, or range, at which the solid turns liquid. Turning to `CCc1noc(-c2cn(-c3cccc(OCc4ccc(Cl)cc4)c3)cn2)n1`, the melting point was in the range of 137 to 138 °C.

Molecule `CC1(C)COP(N(CCCCCCN(C2CC(C)(C)NC(C)(C)C2)P2OCC(C)(C)CO2)C2CC(C)(C)NC(C)(C)C2)OC1` registered a melting point of 103 °C.

For the molecule `CSc1nccn1-c1cccc(C(=O)CC(=O)Nc2cc(-c3ccccc3F)c(OC(C)(C)C)cc2NC(=O)OC(C)(C)C)c1`, the melting point lay in the range of 59 to 62 °C.

The molecule `O=c1ccn(CCO)c(C(O)c2cccc(F)c2)c1OCc1ccccc1` (centres undefined) returned a melting point of 194 to 196 °C.

As for `CC#CC1(O)CCC2C3CCC4=CC(=O)CCC4C3C(=CF)CC21C` (centres undefined), the melting point is 148 °C.

For `Clc1cc(-c2ccc(CBr)c(Cl)c2)ccc1CBr`, the melting point is 148 to 154 °C.

Regarding `Cn1c(=O)c(Cc2ccccc2F)cc2cnc(S(C)(=O)=O)nc21`, the melting point came out at 154 °C.

For the molecule `O=C(O)c1oc(=O)c2ccccc2c1-c1ccc(F)cc1`, the melting point was 218 to 220 °C.

In turn, `COc1cc2c(cc1OC)NC(C)C(=O)N2` (centres undefined) displayed a melting point of 151 °C.

`CCCCCCCCCCOc1ccc(-c2ccc(CCCCC(C)O)cc2)cc1` (centres undefined) returned a melting point of 92 to 93 °C.

`CCOCCOCCOc1ccc(C(=O)OC)cc1F` returned a melting point of 33 to 36.5 °C.

In turn, `COc1ccc2c(c1)c1c3c(c(-c4ccccc4Cl)cc1n2CCCO)C(=O)NC3=O` showed a melting point of 228 to 230 °C.

In turn, `Cc1ccc(-c2ccc3c(c2)C=C(C(=O)Nc2ccc(C(O)CN4CCCCC4)cc2)CCO3)cc1` (centres undefined) gave a melting point of 212 to 213 °C.

With `O=C1N(N2CCOCC2)c2ccccc2C1(Cc1ccccn1)Cc1ccccn1`, the melting point is 157 to 159 °C.

Molecule `CC(=O)OC1(C(=O)CO)CCC2C3CCC4=CC(=O)C=CC4(C)C3C(O)CC21C` (centres undefined) displayed a melting point of 223 to 224 °C.

For `CCCCCCCCCCOc1cc(OCCCCCCCCCC)cc(C(=O)OC)c1`, the melting point is 52 to 53 °C.

`Cc1ccccc1NC(=O)CN1CCN(c2ncccc2C#N)CC1`: the melting point was 123 to 125 °C.

As to `Cc1ncc(NC(=O)OCc2ccccc2)c(=O)n1CC(=O)NC(Cc1ccccc1)C(=O)C(F)(F)F` (centres undefined), the melting point was 115 to 118 °C.

For the molecule `CN(C)C(=S)Oc1ccc(Br)cc1C=O`, the melting point lay in the range of 141 to 143 °C.

Turning to `Cc1nc(Sc2cc(C(=O)O)c3ccccc3n2)sc1CC(=O)O`, the melting point was in the range of 206 to 208 °C.

Regarding `N#Cc1cncnc1N1CCc2ccccc2CC1`, the melting point was 148 to 150 °C.

Consider `Nc1nc2c(c(=O)[nH]1)n(CC(=O)O)c(=O)n2C1OC(CO)C(O)C1O` (centres undefined), for which the melting point was above 230 °C.

Molecule `c1ccc(-c2nc3c([nH]2)CCCC3CN2CCN(c3ncccn3)CC2)cc1` (centres undefined) came in with a melting point of 200 to 202 °C.

The molecule `CCCCCCC(=N)NC(=S)Nc1ccc(Cl)c([N+](=O)[O-])c1` gave a melting point of 92 to 94 °C.

In the case of `NC(=O)c1cn([C@@H](CO)CCn2ccc3ccccc32)cn1`, the melting point was in the range of 127 to 130 °C.

With `CC=CC(=O)Nc1n[nH]c2cc(Cl)ccc12`, the melting point came to 226 °C.

On to `COc1ccc(C(=O)O)c([N+](=O)[O-])c1`, for which the melting point was in the range of 193 to 195 °C.

The molecule `c1ccc(-c2ncc3[nH]c4c(c3n2)CCCC4)cc1` came in with a melting point of 197 to 198 °C.

The molecule `CCOC(=O)NS(=O)(=O)c1c(Cl)c(C)nn1C` had a melting point of 106 to 109 °C.

Consider `Cc1nc(NC(=O)C2=C(O)c3ccc4ccccc4c3S(=O)(=O)N2)sc1C`, for which the melting point worked out at 253 °C.

`N=C(CCOCC(COCCC(=N)NO)(COCCC(=N)NO)COCCC(=N)NO)NO` (centres undefined) yielded a melting point of 60 °C.

Molecule `OC1CCc2cc3c(cc21)OCO3` (centres undefined) returned a melting point of 92 to 94 °C.

The molecule `C=CC[C@](N)(Cc1ccccc1)C(=O)O` gave a melting point of 158 to 159 °C.

Molecule `Nc1ccc(S(=O)(=O)Oc2ccccc2)cc1[N+](=O)[O-]` came in with a melting point of 104 °C.

The molecule `CCCCCCCCCC(=O)Oc1ccc2cc(C(=N)N)ccc2c1` gave a melting point of 165 to 168 °C.

The molecule `CCCCCCOc1ccc2[nH]c(SC(C)(CO)c3ccccc3)cc2c1` (centres undefined) registered a melting point of 93.5 to 95.5 °C.

Regarding `Cc1ccc2c(c1)S(=O)(=O)c1cc(C)ccc1O2`, the melting point lay in the range of 175 to 176 °C.

As to `COc1cc2c(Nc3ccc(Cl)cc3F)ncnc2cc1OCCN(C)c1cc(C)nc(C)c1`, the melting point was in the range of 208 to 212 °C.

On to `COc1ccc(Nc2c([N+](=O)[O-])ccc(Cl)c2C(=O)O)cc1`, for which the melting point fell in the range of 205 to 213 °C.

`Cc1c2cnccc2c(C)c2c1c1cc(O)ccc1n2C` registered a melting point of 337 to 338 °C.

For `O=[N+]([O-])c1ccc(N2CCN(CCCCCCCCCCCO)CC2)cc1`, the melting point was 118 °C.

`Cc1oc(-c2ccccc2)nc1COc1ccc(COc2ccc(Cl)cc2CC(=O)O)cc1` gave a melting point of 160 to 161 °C.

`O=C(CC1(c2ccccc2)C(=O)Oc2ccc(Cl)cc21)N1CCN(c2ccc(C(F)(F)F)cn2)CC1` (centres undefined) showed a melting point of 228 °C.

The molecule `Nc1cnc2ccc(Cl)cc2n1` returned a melting point of 219 to 222 °C.

In the case of `CCOC(=O)C1=C(C)N(C(C)=O)C(c2csc(C)n2)=NC1c1ccc(OC)cc1` (centres undefined), the melting point was in the range of 138 to 140 °C.

Regarding `O=c1oc2ccccc2c2c(-c3ccccc3)c3c4ccccc4ccn3c12`, the melting point lay in the range of 313 to 315 °C.

In turn, `O=C1NC(=O)C(=Cc2ccc(SCCc3ccc(Cl)cc3)cc2)S1` registered a melting point of 215 to 225 °C.

`COc1ccccc1-c1c(C)c(C)c2cnc(Nc3ccc(N4CCOCC4)cc3)nn12` gave a melting point of 169 to 172 °C.

`COC(=O)c1nc(N(C)C)ccc1OCc1ccccc1` yielded a melting point of 71.5 to 73 °C.

In turn, `Cn1ncc(Cl)c(NCCCN2CCC(c3noc4cc(F)ccc34)CC2)c1=O` gave a melting point of 117 to 119 °C.

As to `COc1ccc(CNc2nc(N3CCC[C@H]3CO)ncc2C(=O)NCc2ncccn2)cc1Cl`, the melting point lay within 160 to 163 °C.

Molecule `COc1ccc(CNC(=O)C(=O)NCCc2ccccn2)c(C)c1` gave a melting point of 133 to 134 °C.

Molecule `CC(C)(C)c1ccc2c(c1)OC(C(F)(F)C(F)(F)F)C(C(=O)O)=C2` (centres undefined) returned a melting point of 171 to 174 °C.

With `CCc1nc(O)c2c(n1)c(C)nn2C`, the melting point lay in the range of 220 to 222 °C.

Consider `COC(=O)c1ccc(OCCc2nc(-c3ccccc3)oc2C)cc1O`, for which the melting point was 133 to 134 °C.

`COc1ccc(/C=C(\C#N)c2ccccc2C(F)(F)F)cc1OC1CCCC1` had a melting point of 96 to 98 °C.

Consider `C=CCOc1ccc(C#N)c(Cl)c1`, for which the melting point was in the range of 50 to 52 °C.

Turning to `Cc1cc2nc(C(C)C)c(CO)c(-c3ccc(F)cc3)n2n1`, the melting point was determined as 188 °C.

The molecule `CCc1nc2c(C)cc(C)nc2n1Cc1ccc(C(=C(Cl)c2nnn[nH]2)c2ccccc2)cc1` registered a melting point of 119 to 132 °C.

With `Cc1noc(C)c1Cn1cc(N2C(=O)c3ccccc3C2=O)cn1`, the melting point lay in the range of 170 to 171 °C.

`CC(=O)OC1CSC(Oc2ccc(Cl)nc2)C(OC(C)=O)C1OC(C)=O` (centres undefined) registered a melting point of 141 °C.

With `c1ccc(CC2CCN(Cc3ccn(-c4ccccc4)c3)CC2)cc1`, the melting point lay in the range of 159 to 161 °C.

As to `COc1ccc(CNc2nc(NCCCc3cccc(C(C)=O)c3)nc3ncccc23)cc1OC`, the melting point is 152 to 155 °C.

Molecule `Cc1cc(C2=C(c3ccc(S(C)(=O)=O)cc3)C(C)(C)OC2=O)ccc1-c1cscn1` yielded a melting point of 80.3 °C.
